Experimental data as given in ChEMBL document CHEMBL1649285, “In vivo efficacy of 1- and 2-gram human simulated prolonged infusions of doripenem against Pseudomonas aeruginosa” (Antimicrob Agents Chemother, 2009).
≈ marks a conversion by molar mass, not a printed value.

Assays:
Pseudomonas aeruginosa [1] = assay: Antimicrobial activity against Pseudomonas aeruginosa isolate 1036 by broth microdilution method; format: functional
Pseudomonas aeruginosa [2] = assay: Antimicrobial activity against Pseudomonas aeruginosa isolate 944 by broth microdilution method; format: functional
Pseudomonas aeruginosa [3] = assay: Antimicrobial activity against Pseudomonas aeruginosa isolate 1050 by broth microdilution method; format: functional
Pseudomonas aeruginosa [4] = assay: Antimicrobial activity against Pseudomonas aeruginosa isolate 1060 by broth microdilution method; format: functional
Pseudomonas aeruginosa [5] = assay: Antimicrobial activity against Pseudomonas aeruginosa isolate 1095 by broth microdilution method; format: functional
Pseudomonas aeruginosa [6] = assay: Antimicrobial activity against Pseudomonas aeruginosa isolate 22 by broth microdilution method; format: functional
Pseudomonas aeruginosa [7] = assay: Antimicrobial activity against Pseudomonas aeruginosa isolate 878 by broth microdilution method; format: functional
Pseudomonas aeruginosa [8] = assay: Antimicrobial activity against Pseudomonas aeruginosa isolate 896 by broth microdilution method; format: functional
Pseudomonas aeruginosa [9] = assay: Antimicrobial activity against Pseudomonas aeruginosa isolate 988 by broth microdilution method; format: functional
Pseudomonas aeruginosa [10] = assay: Antimicrobial activity against Pseudomonas aeruginosa isolate 1006 by broth microdilution method; format: functional
Pseudomonas aeruginosa [11] = assay: Antimicrobial activity against Pseudomonas aeruginosa isolate 856 by broth microdilution method; format: functional
Pseudomonas aeruginosa [12] = assay: Antimicrobial activity against Pseudomonas aeruginosa isolate 913 by broth microdilution method; format: functional
Pseudomonas aeruginosa [13] = assay: Antimicrobial activity against Pseudomonas aeruginosa isolate 927 by broth microdilution method; format: functional
Pseudomonas aeruginosa [14] = assay: Antimicrobial activity against Pseudomonas aeruginosa isolate 968 by broth microdilution method; format: functional
Pseudomonas aeruginosa [15] = assay: Antimicrobial activity against Pseudomonas aeruginosa isolate 971 by broth microdilution method; format: functional
Pseudomonas aeruginosa [16] = assay: Antimicrobial activity against Pseudomonas aeruginosa isolate 821 by broth microdilution method; format: functional
Pseudomonas aeruginosa [17] = assay: Antimicrobial activity against Pseudomonas aeruginosa isolate 1080 by broth microdilution method; format: functional
Pseudomonas aeruginosa [18] = assay: Antimicrobial activity against Pseudomonas aeruginosa isolate 1093 by broth microdilution method; format: functional
[19] = fT>MIC in Pseudomonas aeruginosa selected at 2 ug/ml MIC infected human at 1 g, iv administered as 4 hrs infusion every 8 hrs; format: functional
[20] = fT>MIC in Pseudomonas aeruginosa selected at 4 ug/ml MIC infected human at 1 g, iv administered as 4 hrs infusion every 8 hrs; format: functional
[21] = fT>MIC in Pseudomonas aeruginosa selected at 8 ug/ml MIC infected human at 1 g, iv administered as 4 hrs infusion every 8 hrs; format: functional
[22] = fT>MIC in Pseudomonas aeruginosa selected at 16 ug/ml MIC infected human at 1 g, iv administered as 4 hrs infusion every 8 hrs; format: functional
[23] = fT>MIC in Pseudomonas aeruginosa selected at 32 ug/ml MIC infected human at 1 g, iv administered as 4 hrs infusion every 8 hrs; format: functional
[24] = fT>MIC in Pseudomonas aeruginosa selected at 2 ug/ml MIC infected ICR mouse at 1 g, sc administered 2 hrs post infection every 8 hrs; format: functional
[25] = fT>MIC in Pseudomonas aeruginosa selected at 4 ug/ml MIC infected ICR mouse at 1 g, sc administered 2 hrs post infection every 8 hrs; format: functional
[26] = fT>MIC in Pseudomonas aeruginosa selected at 8 ug/ml MIC infected ICR mouse at 1 g, sc administered 2 hrs post infection every 8 hrs; format: functional
[27] = fT>MIC in Pseudomonas aeruginosa selected at 16 ug/ml MIC infected ICR mouse at 1 g, sc administered 2 hrs post infection every 8 hrs; format: functional
[28] = fT>MIC in Pseudomonas aeruginosa selected at 32 ug/ml MIC infected ICR mouse at 1 g, sc administered 2 hrs post infection every 8 hrs; format: functional
[29] = fT>MIC in Pseudomonas aeruginosa selected at 2 ug/ml MIC infected human at 2 g, iv administered as 4 hrs infusion every 8 hrs; format: functional
[30] = fT>MIC in Pseudomonas aeruginosa selected at 4 ug/ml MIC infected human at 2 g, iv administered as 4 hrs infusion every 8 hrs; format: functional
[31] = fT>MIC in Pseudomonas aeruginosa selected at 8 ug/ml MIC infected human at 2 g, iv administered as 4 hrs infusion every 8 hrs; format: functional
[32] = fT>MIC in Pseudomonas aeruginosa selected at 16 ug/ml MIC infected human at 2 g, iv administered as 4 hrs infusion every 8 hrs; format: functional
[33] = fT>MIC in Pseudomonas aeruginosa selected at 32 ug/ml MIC infected human at 2 g, iv administered as 4 hrs infusion every 8 hrs; format: functional
[34] = fT>MIC in Pseudomonas aeruginosa selected at 2 ug/ml MIC infected ICR mouse at 2 g, sc administered 2 hrs post infection every 8 hrs; format: functional
[35] = fT>MIC in Pseudomonas aeruginosa selected at 4 ug/ml MIC infected ICR mouse at 2 g, sc administered 2 hrs post infection every 8 hrs; format: functional
[36] = fT>MIC in Pseudomonas aeruginosa selected at 8 ug/ml MIC infected ICR mouse at 2 g, sc administered 2 hrs post infection every 8 hrs; format: functional
[37] = fT>MIC in Pseudomonas aeruginosa selected at 16 ug/ml MIC infected ICR mouse at 2 g, sc administered 2 hrs post infection every 8 hrs; format: functional
[38] = fT>MIC in Pseudomonas aeruginosa selected at 32 ug/ml MIC infected ICR mouse at 2 g, sc administered 2 hrs post infection every 8 hrs; format: functional
Mus musculus [39] = assay: fCmax in ICR mouse at 1 g, sc administered 2 hrs post infection every 8 hrs; format: ADME, organism-based; conditions: in vivo
Mus musculus [40] = assay: fAUC in ICR mouse at 1 g, sc administered 2 hrs post infection every 8 hrs; format: ADME, organism-based; conditions: in vivo
Mus musculus [41] = assay: fCmax in ICR mouse at 2 g, sc administered 2 hrs post infection every 8 hrs; format: ADME, organism-based; conditions: in vivo
Mus musculus [42] = assay: fAUC in ICR mouse at 2 g, sc administered 2 hrs post infection every 8 hrs; format: ADME, organism-based; conditions: in vivo
Homo sapiens [43] = assay: fCmax in human at 1 g, iv administered as 4 hrs infusion every 8 hrs; format: ADME, organism-based; conditions: in vivo
Homo sapiens [44] = assay: fAUC in human at 1 g, iv administered as 4 hrs infusion every 8 hrs; format: ADME, organism-based; conditions: in vivo
Homo sapiens [45] = assay: fCmax in human at 2 g, iv administered as 4 hrs infusion every 8 hrs; format: ADME, organism-based; conditions: in vivo
Homo sapiens [46] = assay: fAUC in human at 2 g, iv administered as 4 hrs infusion every 8 hrs; format: ADME, organism-based; conditions: in vivo
Pseudomonas aeruginosa [47] = assay: Antimicrobial activity against Pseudomonas aeruginosa selected at MIC […] to […] ug/ml infected ICR mouse assessed as reduction in bacterial load at 1g, sc administered 2 hrs post infection every 8 hrs; format: functional
Pseudomonas aeruginosa [48] = assay: Antimicrobial activity against Pseudomonas aeruginosa selected at MIC […] to […] ug/ml infected ICR mouse assessed as reduction in bacterial load at 2g, sc administered 2 hrs post infection every 8 hrs; format: functional

In the case of `C[C@@H](O)[C@H]1C(=O)N2C(C(=O)O)=C(S[C@@H]3CN[C@H](CNS(N)(=O)=O)C3)[C@H](C)[C@H]12` [DORIPENEM], the MIC (Pseudomonas aeruginosa [1]) is reported as 2 µg/mL (≈ 4.76 µM), the MIC (Pseudomonas aeruginosa [2]) is reported as 4 µg/mL (≈ 9.51 µM) and the MIC (Pseudomonas aeruginosa [3]) is reported as 4 µg/mL (≈ 9.51 µM). The MIC (Pseudomonas aeruginosa [4]) was 4 µg/mL (≈ 9.51 µM), the MIC (Pseudomonas aeruginosa [5]) was 4 µg/mL (≈ 9.51 µM) and the MIC (Pseudomonas aeruginosa [6]) was 8 µg/mL (≈ 19 µM). The MIC (Pseudomonas aeruginosa [7]) was 8 µg/mL (≈ 19 µM), the MIC (Pseudomonas aeruginosa [8]) was 8 µg/mL (≈ 19 µM) and the MIC (Pseudomonas aeruginosa [9]) was 8 µg/mL (≈ 19 µM). For the same molecule, the MIC (Pseudomonas aeruginosa [10]) was 8 µg/mL (≈ 19 µM), the MIC (Pseudomonas aeruginosa [11]) was 16 µg/mL (≈ 38 µM) and the MIC (Pseudomonas aeruginosa [12]) was 16 µg/mL (≈ 38 µM). For the same molecule, the MIC (Pseudomonas aeruginosa [13]) was 16 µg/mL (≈ 38 µM), the MIC (Pseudomonas aeruginosa [14]) was 16 µg/mL (≈ 38 µM) and the MIC (Pseudomonas aeruginosa [15]) was 16 µg/mL (≈ 38 µM). For the same molecule, the MIC (Pseudomonas aeruginosa [16]) was 32 µg/mL (≈ 76.1 µM), the MIC (Pseudomonas aeruginosa [17]) was 32 µg/mL (≈ 76.1 µM) and the MIC (Pseudomonas aeruginosa [18]) was 32 µg/mL (≈ 76.1 µM). The “fT>MIC” value [19] was 80%, the “fT>MIC” value [20] was 65% and the “fT>MIC” value [21] was 50%. The “fT>MIC” value [22] was 0%, the “fT>MIC” value [23] was 0% and the “fT>MIC” value [24] was 82.5%. The “fT>MIC” value [25] was 70%, the “fT>MIC” value [26] was 52.5% and the “fT>MIC” value [27] was 0%. For the same molecule, the “fT>MIC” value [28] was 0%, the “fT>MIC” value [29] was 95% and the “fT>MIC” value [30] was 80%. The “fT>MIC” value [31] was 65%, the “fT>MIC” value [32] was 50% and the “fT>MIC” value [33] was 0%. The “fT>MIC” value [34] was 95%, the “fT>MIC” value [35] was 82.5% and the “fT>MIC” value [36] was 70%. For the same molecule, the “fT>MIC” value [37] was 52.5%, the “fT>MIC” value [38] was 0% and the fCmax (Mus musculus [39]) was 15.9 µg/mL. It also gave a fAUC (Mus musculus [40]) of 68600 ng·h/mL, a fCmax (Mus musculus [41]) of 31.9 µg/mL and a fAUC (Mus musculus [42]) of 137100 ng·h/mL. It also gave a fCmax (Homo sapiens [43]) of 15.6 µg/mL, a fAUC (Homo sapiens [44]) of 64700 ng·h/mL and a fCmax (Homo sapiens [45]) of 31.2 µg/mL. For the same molecule, the fAUC (Homo sapiens [46]) was 129300 ng·h/mL, the log10cfu (Pseudomonas aeruginosa [47]) was “>=2” and the log10cfu (Pseudomonas aeruginosa [48]) was “>=2”.
In the case of `NC[C@H]1O[C@H](O[C@H]2[C@H](O)[C@@H](O[C@H]3O[C@H](CO)[C@@H](O)[C@H](N)[C@H]3O)[C@H](N)C[C@@H]2N)[C@H](N)C[C@@H]1O` [TOBRAMYCIN], the MIC (Pseudomonas aeruginosa [1]) is reported as 0.125 µg/mL (≈ 0.267 µM), the MIC (Pseudomonas aeruginosa [2]) is reported as 96 µg/mL (≈ 205 µM) and the MIC (Pseudomonas aeruginosa [3]) is reported as 16 µg/mL (≈ 34.2 µM). For the same molecule, the MIC (Pseudomonas aeruginosa [4]) was 0.75 µg/mL (≈ 1.6 µM), the MIC (Pseudomonas aeruginosa [5]) was 2 µg/mL (≈ 4.28 µM) and the MIC (Pseudomonas aeruginosa [6]) was 0.5 µg/mL (≈ 1.07 µM). It also gave an MIC (Pseudomonas aeruginosa [7]) of 1.5 µg/mL (≈ 3.21 µM), an MIC (Pseudomonas aeruginosa [8]) of 24 µg/mL (≈ 51.3 µM) and an MIC (Pseudomonas aeruginosa [9]) of 64 µg/mL (≈ 137 µM). For the same molecule, the MIC (Pseudomonas aeruginosa [10]) was 3 µg/mL (≈ 6.42 µM), the MIC (Pseudomonas aeruginosa [11]) was 32 µg/mL (≈ 68.4 µM) and the MIC (Pseudomonas aeruginosa [12]) was 96 µg/mL (≈ 205 µM). It also gave an MIC (Pseudomonas aeruginosa [13]) of 3 µg/mL (≈ 6.42 µM), an MIC (Pseudomonas aeruginosa [14]) of 96 µg/mL (≈ 205 µM) and an MIC (Pseudomonas aeruginosa [15]) of 1.5 µg/mL (≈ 3.21 µM). For the same molecule, the MIC (Pseudomonas aeruginosa [16]) was 3 µg/mL (≈ 6.42 µM), the MIC (Pseudomonas aeruginosa [17]) was 3 µg/mL (≈ 6.42 µM) and the MIC (Pseudomonas aeruginosa [18]) was 2 µg/mL (≈ 4.28 µM).
With `CC(C)(O/N=C(\C(=O)N[C@@H]1C(=O)N2C(C(=O)[O-])=C(C[n+]3ccccc3)CS[C@H]12)c1csc(N)n1)C(=O)O` [CEFTAZIDIME] the MIC (Pseudomonas aeruginosa [1]) was 2 µg/mL (≈ 3.66 µM), the MIC (Pseudomonas aeruginosa [2]) was 4 µg/mL (≈ 7.32 µM) and the MIC (Pseudomonas aeruginosa [3]) was 3 µg/mL (≈ 5.49 µM). The MIC (Pseudomonas aeruginosa [4]) was 2 µg/mL (≈ 3.66 µM), the MIC (Pseudomonas aeruginosa [5]) was 16 µg/mL (≈ 29.3 µM) and the MIC (Pseudomonas aeruginosa [6]) was 16 µg/mL (≈ 29.3 µM). The MIC (Pseudomonas aeruginosa [7]) was 12 µg/mL (≈ 22 µM), the MIC (Pseudomonas aeruginosa [8]) was 12 µg/mL (≈ 22 µM) and the MIC (Pseudomonas aeruginosa [9]) was 6 µg/mL (≈ 11 µM). The MIC (Pseudomonas aeruginosa [10]) was 4 µg/mL (≈ 7.32 µM), the MIC (Pseudomonas aeruginosa [11]) was > 256 µg/mL and the MIC (Pseudomonas aeruginosa [12]) was 24 µg/mL (≈ 43.9 µM). For the same molecule, the MIC (Pseudomonas aeruginosa [13]) was 8 µg/mL (≈ 14.6 µM), the MIC (Pseudomonas aeruginosa [14]) was 24 µg/mL (≈ 43.9 µM) and the MIC (Pseudomonas aeruginosa [15]) was 48 µg/mL (≈ 87.8 µM). For the same molecule, the MIC (Pseudomonas aeruginosa [16]) was 64 µg/mL (≈ 117 µM), the MIC (Pseudomonas aeruginosa [17]) was 16 µg/mL (≈ 29.3 µM) and the MIC (Pseudomonas aeruginosa [18]) was 4 µg/mL (≈ 7.32 µM).
